Data published in patent US10342795B2, “Substituted 4,5,6,7-tetrahydro-pyrazolo[1,5-a]pyrimidine derivatives and 2,3-dihydro-1H-imidazo[1,2-b]pyrazole derivatives as ROS1 inhibitors” (Janssen Pharmaceutica NV, priority 2014, dated 2019).

Assays:
[1] = target: Ba/F3 cells containing Ros1 wild-type protein (Homo sapiens, UniProt P08922, cells depend on it, form not given); assay: Ba/F3-Ros1 cell proliferation assay, wild-type Ros1, without IL-3; assay type: cell-based, murine; settings: -log IC50 (M); wild-type Ros1, no IL-3, 24 h, Alamar Blue
Ba/F3 cells containing Ros1 wild-type protein, sequence (P08922 whole entry, stated change not applied): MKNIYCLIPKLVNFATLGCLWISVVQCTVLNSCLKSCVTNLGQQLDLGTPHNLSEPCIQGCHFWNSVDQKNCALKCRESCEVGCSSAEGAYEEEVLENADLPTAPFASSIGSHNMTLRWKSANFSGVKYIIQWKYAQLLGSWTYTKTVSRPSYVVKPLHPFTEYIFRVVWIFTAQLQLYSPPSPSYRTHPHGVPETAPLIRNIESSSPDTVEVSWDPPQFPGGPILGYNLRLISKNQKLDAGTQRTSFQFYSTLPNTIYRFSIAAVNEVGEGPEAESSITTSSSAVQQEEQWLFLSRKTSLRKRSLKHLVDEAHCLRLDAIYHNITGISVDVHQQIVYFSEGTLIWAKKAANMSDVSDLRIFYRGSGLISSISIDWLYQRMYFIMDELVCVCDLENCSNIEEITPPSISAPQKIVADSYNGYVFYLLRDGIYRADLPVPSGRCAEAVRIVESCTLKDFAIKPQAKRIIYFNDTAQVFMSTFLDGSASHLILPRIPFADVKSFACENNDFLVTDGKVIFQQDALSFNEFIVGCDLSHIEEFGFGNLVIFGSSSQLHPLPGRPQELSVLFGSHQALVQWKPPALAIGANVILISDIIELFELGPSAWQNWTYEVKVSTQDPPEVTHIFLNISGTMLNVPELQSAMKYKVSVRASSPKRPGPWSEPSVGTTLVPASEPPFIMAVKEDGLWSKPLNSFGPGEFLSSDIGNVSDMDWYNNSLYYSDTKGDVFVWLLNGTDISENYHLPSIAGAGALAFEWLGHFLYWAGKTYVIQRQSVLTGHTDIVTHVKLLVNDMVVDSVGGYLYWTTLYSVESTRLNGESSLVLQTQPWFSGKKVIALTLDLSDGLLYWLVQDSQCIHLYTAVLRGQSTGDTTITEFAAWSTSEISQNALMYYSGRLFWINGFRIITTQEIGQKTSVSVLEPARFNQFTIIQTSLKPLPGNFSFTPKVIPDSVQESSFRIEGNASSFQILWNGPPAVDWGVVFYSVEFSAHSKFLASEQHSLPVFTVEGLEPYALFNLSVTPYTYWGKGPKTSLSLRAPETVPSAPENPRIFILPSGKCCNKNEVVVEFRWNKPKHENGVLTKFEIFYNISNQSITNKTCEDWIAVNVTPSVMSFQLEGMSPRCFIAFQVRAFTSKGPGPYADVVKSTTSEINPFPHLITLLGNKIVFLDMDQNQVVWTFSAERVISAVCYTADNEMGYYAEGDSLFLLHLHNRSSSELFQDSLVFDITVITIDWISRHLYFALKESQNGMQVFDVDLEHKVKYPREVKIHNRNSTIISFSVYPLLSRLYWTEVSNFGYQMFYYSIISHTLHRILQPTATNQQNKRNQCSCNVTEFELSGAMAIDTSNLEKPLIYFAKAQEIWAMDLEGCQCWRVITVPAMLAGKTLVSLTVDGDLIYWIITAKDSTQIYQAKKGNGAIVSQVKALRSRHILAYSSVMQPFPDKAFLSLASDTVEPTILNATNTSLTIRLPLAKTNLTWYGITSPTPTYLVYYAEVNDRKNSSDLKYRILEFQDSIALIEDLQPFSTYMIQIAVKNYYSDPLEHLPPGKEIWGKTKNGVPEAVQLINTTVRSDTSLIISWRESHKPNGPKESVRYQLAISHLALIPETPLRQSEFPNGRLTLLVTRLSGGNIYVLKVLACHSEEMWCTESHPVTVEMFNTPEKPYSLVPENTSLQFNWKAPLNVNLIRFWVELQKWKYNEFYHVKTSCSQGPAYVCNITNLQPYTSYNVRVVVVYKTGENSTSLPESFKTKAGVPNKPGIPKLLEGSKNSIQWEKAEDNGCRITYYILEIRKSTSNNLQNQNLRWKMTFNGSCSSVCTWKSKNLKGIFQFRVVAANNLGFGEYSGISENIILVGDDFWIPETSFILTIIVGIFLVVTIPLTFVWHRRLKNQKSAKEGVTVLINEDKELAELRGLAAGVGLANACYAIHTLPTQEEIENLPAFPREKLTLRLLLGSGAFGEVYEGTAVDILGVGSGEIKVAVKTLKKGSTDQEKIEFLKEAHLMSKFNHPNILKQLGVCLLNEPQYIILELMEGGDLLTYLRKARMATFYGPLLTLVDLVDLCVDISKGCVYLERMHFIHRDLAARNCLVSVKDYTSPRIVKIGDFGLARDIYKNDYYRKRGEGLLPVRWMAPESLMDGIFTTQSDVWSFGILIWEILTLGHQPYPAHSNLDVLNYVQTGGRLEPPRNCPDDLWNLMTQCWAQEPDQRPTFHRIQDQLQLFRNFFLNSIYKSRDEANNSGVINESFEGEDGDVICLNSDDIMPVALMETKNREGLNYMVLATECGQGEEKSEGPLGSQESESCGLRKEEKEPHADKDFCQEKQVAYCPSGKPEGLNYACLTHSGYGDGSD
Experimental: (§1) This assay was carried out with Ba/F3 cells containing three different versions of Ros1: the wild-type protein, protein with a mutation at the gatekeeper residue (L2026M), and protein with a mutation identified in a tumor from a patient that became resistant to crizotinib (Xalkori®) treatment (G2032R). Compounds were solubilized in 100% DMSO (dimethyl sulfoxide) and sprayed into polystyrene, tissue culture treated 384-well plates. A 50 μl volume of cell culture medium (phenol red free RPMI-1640, 10% FBS (fetal bovine serum), 2 mM L-Glutamine) containing 20000 Ba/F3-Ros1 cells was added to each well and the plates were placed in an incubator at 37° C. and 5% CO2. After 24 hours, 10 μl of Alamar Blue solution (0.5 mM K3Fe(CN)6, 0.5 mM K4Fe(CN)6, 0.15 mM Resazurin and 100 mM Phosphate Buffer) was added to the wells, incubated for 4 hours at 37° C. and 5% CO2 before RFU's (Relative Fluorescence Units) (ex. 540 nm., em. 590 nm.) were measured in a fluorescence plate reader.

[2] = tested on: Ba/F3 cells containing Ros1 wild-type protein + IL-3; assay: Ba/F3-Ros1 cell proliferation counter-screen, wild-type Ros1 in the presence of murine IL-3; assay type: cell-based; settings: Mus musculus, BaF3, 24 h; -log IC50 (M); wild-type Ros1, 10 ng/ml murine IL-3 (counter-screen); read-out: BaF3-ROS1 + IL3 pIC50 (converted)
Experimental: as §1
As a counter-screen the same experiment was performed for the wild-type protein in the presence of 10 ng/ml murine IL-3.

[3] = target: Ba/F3 cells containing Ros1 G2032R (Homo sapiens, UniProt P08922, G2032R, cells depend on it, form not given); assay: Ba/F3-Ros1 cell proliferation assay, G2032R mutant; assay type: cell-based, murine; settings: -log IC50 (M), no IL-3
Ba/F3 cells containing Ros1 G2032R, sequence (P08922 whole entry G2032R, form open): as the sequence (P08922 whole entry, stated change not applied) above, with G2032R counted along it
Experimental: as §1

Ba/F3-Ros1 G2032R tumors = assay: Efficacy study in mice bearing Ba/F3-Ros1 G2032R tumors; assay type: in vivo, NMRI nude mice; settings: oral gavage, 10 days, 20% cyclodextrin, change in final relative tumor volumes
Experimental: Approximately 2×10^6 Ba/F3 cells containing G2032R mutant Ros1 were inoculated into the inguinal region of NMRI nude mice. When the resulting tumors reached a size of 250 to 350 mm^3, mice were randomly assigned to the different treatment groups (8 to 12 mice per group). Compounds formulated in 20% cyclodextrin were administered to the mice by oral gavage at various doses for 10-days once (QD) or twice (BID) a day (see table below for administration frequency used in the study). Tumor sizes were determined by caliper measurement on day 1 prior to treatment and then twice weekly for the duration of the study using the commonly following formula: tumor volume (mm^3)=(a×b^2/2); where ‘a’ represents the length, and ‘b’ the width of the tumor. Treatment/control (T/C) ratios were calculated at the end of the study based on the change in final relative tumor volumes.

[4] = target: Ba/F3 cells containing Ros1 L2026M (Homo sapiens, UniProt P08922, L2026M, cells depend on it, form not given); assay: Ba/F3-Ros1 cell proliferation assay, L2026M gatekeeper mutant; assay type: cell-based, murine; settings: -log IC50 (M), no IL-3
Ba/F3 cells containing Ros1 L2026M, sequence (P08922 whole entry L2026M, form open): as the sequence (P08922 whole entry, stated change not applied) above, with L2026M counted along it
Experimental: as §1

Ros1 enzyme = target: T1, Ros1 enzyme (Homo sapiens, UniProt P08922); assay: Ros1 enzymatic assay; assay type: biochemical; settings: -log IC50 (M); 20 μM ATP, 120 min at room temperature; read-out: ROS1 pIC50 (converted)
T1 construct: 0.5 μg/ml Ros1 enzyme
Experimental: Compounds were spotted onto white 384-well Proxiplate plus plates (Perkin Elmer) to which 5 μl of enzyme mix (0.5 μg/ml Ros1 enzyme, 50 mM Tris-HCl pH7.5, 1 mM EGTA, 10 mM MgCl2, 0.01% Tween-20) and 5 μl of substrate mix (6 μg/ml IRS-Tide [American Peptide Company], 20 μM ATP, 13.33 μCi/ml ATP (adenosine 5′-triphosphate) P^33, 50 mM Tris-HCl pH7.5, 1 mM EGTA (ethylene glycol-bis(2-aminoethylether)-N,N,N′,N′-tetraacetic acid), 10 mM MgCl2, 0.01% Tween-20) were added. After incubation for 120 minutes at room temperature, 10 μl of stop reaction buffer (5 mM EDTA, 50 μM ATP, 0.1% BSA (bovine serum albumin), 0.1% Triton X-100, 50 mM Tris-HCl pH7.5, 1 mM EGTA, 10 mM MgCl2, 0.01% Tween-20) containing 2 mg/ml streptavidin coupled polystyrene imaging beads (Amersham Biosciences) was added and incubated for 15 minutes at room temperature. Plates were centrifuged for 3 minutes at 1500 rpm and signals detected in a LEADseeker imaging system (GE).

[5] = tested on: HCC78 non-small cell lung cancer cells; assay: HCC78 cell proliferation assay; assay type: cell-based; settings: Homo sapiens, HCC78, 96 h; -log EC50 (M); 4 days, MTT; read-out: HCC-78 PROL pEC50 (converted)
Experimental: Approximately 1000 HCC78 non-small cell lung cancer cells in 180 μl of cell culture medium (RPMI-1640, 10% FBS, 2 mM L-Glutamine, 10 mM Hepes, 1 mM sodium pyruvate, 4.5 g/L glucose, 1.5 g/L sodium bicarbonate, 25 μg/ml Gentamycin) were seeded in each well of a 96-well polystyrene, tissue-culture treated plate and incubated at 37° C. and 5% CO2. After 24 hours, compounds were diluted in cell culture medium from which 20 μl was added to the wells containing cells and incubated for 4 days at 37° C. and 5% CO2. A 5 mg/ml solution of the tetrazolium dye MTT was prepared in PBS (phosphate-buffered saline) and 25 μl was added to each well. After 2 hours the medium was removed and replaced by 125 μL of 4/1 DMSO/glycine buffer (0.1M glycine, 0.1M NaCl, pH 10.5) before absorbance was determined at 538 nm.

Ros pY2274 = Ros pY2274 (Homo sapiens, UniProt P08922); assay: pROS1 immunofluorescence assay in HCC78 cells; assay type: cell-based; settings: -log IC50 (M); 4 hours, Ros1 pY2274 normalized to total Ros1
Ros pY2274, sequence (P08922 1750-2347): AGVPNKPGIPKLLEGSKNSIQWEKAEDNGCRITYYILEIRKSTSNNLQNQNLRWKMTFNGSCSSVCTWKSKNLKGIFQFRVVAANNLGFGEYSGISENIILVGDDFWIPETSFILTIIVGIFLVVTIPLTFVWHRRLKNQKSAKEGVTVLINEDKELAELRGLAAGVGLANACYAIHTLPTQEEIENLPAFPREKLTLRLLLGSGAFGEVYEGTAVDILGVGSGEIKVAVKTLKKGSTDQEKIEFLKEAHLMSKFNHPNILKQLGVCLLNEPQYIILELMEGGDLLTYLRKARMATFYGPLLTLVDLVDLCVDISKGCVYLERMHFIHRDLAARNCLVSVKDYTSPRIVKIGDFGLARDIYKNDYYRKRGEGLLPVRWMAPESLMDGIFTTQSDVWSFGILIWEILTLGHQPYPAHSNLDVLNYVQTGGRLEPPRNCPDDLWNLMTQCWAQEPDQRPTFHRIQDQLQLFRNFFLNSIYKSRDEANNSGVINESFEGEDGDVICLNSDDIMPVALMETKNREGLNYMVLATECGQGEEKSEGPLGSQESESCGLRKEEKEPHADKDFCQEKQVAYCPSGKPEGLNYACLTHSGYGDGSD
Experimental: Approximately 20000 HCC78 non-small cell lung cancer cells in 180 μl of cell culture medium (RPMI-1640, 10% FBS, 2 mM L-Glutamine, 10 mM Hepes, 1 mM sodium pyruvate, 4.5 g/L glucose, 1.5 g/L sodium bicarbonate, 25 μg/ml Gentamycin) were seeded in each well of a 96-well polystyrene, poly-D-lysine coated plate and incubated at 37° C. and 5% CO2. After 24 hours, compounds were diluted in cell culture medium from which 20 μl was added to the wells containing cells and incubated for 4 hours at 37° C. and 5% CO2. The medium was removed and the cells were fixed by adding 100 μl of 5% formaldehyde in TBS (tris-buffered saline) (50 mM Tris.HCl, pH 7.4, 150 mM NaCl) and incubating for 15 minutes at room temperature. The formaldehyde was removed and replaced with methanol for 10 minutes at room temperature, after which the cells were washed 3 times with TBS containing 1% Triton X-100 and incubated in Odyssee (Li-Cor) blocking buffer for 1 hour at room temperature. The cells were then incubated with the primary rabbit antibody directed against Ros pY2274 (cst-3078) diluted 1/200 in blocking buffer for 24 hours at room temperature. The cells were washed three times with TBS containing 0.1% Triton X-100 and incubated with a secondary anti-rabbit antibody conjugated to the fluorescent dye Alexafluor 680 in blocking buffer for 1 hour at room temperature. The cells were washed three times with TBS containing 0.1% Triton X-100 and left to dry before measuring RFUs (Relative Fluorescence Units) at 700 nm using a fluorescence imager. The same experiment was performed using total Ros1 antibody (sc-6347) diluted 1/1000 instead of Ros1 pY2274 antibody and an anti-goat antibody conjugated to IRDye800cw as a secondary antibody. RFUs were measured at […]. The signals from total Ros1 detection were used to normalize the Ros1pY2274 values.

CC(C)c1ccc(COc2ccc(-c3c(-c4ccncc4)nn4c3NCC4)cc2)cc1 [Co. 1]
melting point: 156 °C | BaF3-ROS1 − IL3 pIC50 [1]: 7.0 | CC50 [2]: 5.01e-06 M | Ba/3 Ros1 G2032R (-IL-3) pIC50 [3]: 6.4 | T/C (%) (Ba/F3-Ros1 G2032R tumors; 12.5 mg/kg BID): 64% | T/C (%) (Ba/F3-Ros1 G2032R tumors; 25 mg/kg BID): 16% | T/C (%) (Ba/F3-Ros1 G2032R tumors; 50 mg/kg BID): −18% | Ba/F3 Ros1 L2026M (-IL-3) pIC50 [4]: ~6.7 | IC50 (Ros1 enzyme): 1.26e-07 M | EC50 [5]: 7.94e-07 M

CC(C)c1ccc(COc2ccc(-c3c(-c4ccncc4)nn4c3NCC4)c(F)c2)cc1 [Co. 5]
melting point: 141 °C | BaF3-ROS1 − IL3 pIC50 [1]: 7.1 | CC50 [2]: > 1e-05 M | Ba/3 Ros1 G2032R (-IL-3) pIC50 [3]: 6.7 | Ba/F3 Ros1 L2026M (-IL-3) pIC50 [4]: <5 | IC50 (Ros1 enzyme): ~1.26e-07 M | EC50 [5]: 7.94e-07 M

c1cc(-c2nn3c(c2-c2ccc(OCc4ccc(C5CC5)cc4)cc2)NCC3)ccn1 [Co. 7]
melting point: 159 °C | BaF3-ROS1 − IL3 pIC50 [1]: 6.8 | CC50 [2]: > 1e-05 M | Ba/3 Ros1 G2032R (-IL-3) pIC50 [3]: 6.2 | Ba/F3 Ros1 L2026M (-IL-3) pIC50 [4]: 7.5 | IC50 (Ros1 enzyme): 2.51e-07 M | EC50 [5]: 6.31e-07 M

CC(C)c1ccc(COc2ccc(-c3c(-c4ccncc4)nn4c3N(CCO)CC4)cc2)cc1 [Co. 10]
melting point: 151 °C | BaF3-ROS1 − IL3 pIC50 [1]: 7.1 | CC50 [2]: > 1e-05 M | Ba/3 Ros1 G2032R (-IL-3) pIC50 [3]: 6.4 | Ba/F3 Ros1 L2026M (-IL-3) pIC50 [4]: 6.8 | IC50 (Ros1 enzyme): 1.26e-07 M | EC50 [5]: 2.51e-06 M

CC(C)c1ccc(COc2ccc(-c3c(-c4ccncc4)nn4c3NC(=O)C4)cc2)cc1 [Co. 13]
HCC78 pRos pIC50 (Ros pY2274): 6.8 | BaF3-ROS1 − IL3 pIC50 [1]: 6.8 | CC50 [2]: > 1e-05 M | Ba/F3 Ros1 L2026M (-IL-3) pIC50 [4]: 6.7 | IC50 (Ros1 enzyme): 1.58e-07 M | EC50 [5]: 5.01e-07 M

CC(C)c1ccc(COc2ccc(-c3c(-c4ccncc4)nn4c3NC(=O)CC4)cc2)cc1 [Co. 16]
melting point: 290 °C | HCC78 pRos pIC50 (Ros pY2274): ~5.4 | BaF3-ROS1 − IL3 pIC50 [1]: 7.0 | CC50 [2]: > 1e-05 M | Ba/F3 Ros1 L2026M (-IL-3) pIC50 [4]: 7.3 | IC50 (Ros1 enzyme): 1.26e-07 M | EC50 [5]: 1e-07 M

CC(C)c1ccc(COc2ccc(-c3c(-c4ccncc4)nn4c3NCCC4)cc2)cc1 [Co. 17]
melting point: 205 °C | HCC78 pRos pIC50 (Ros pY2274): 7.6 | BaF3-ROS1 − IL3 pIC50 [1]: 7.1 | CC50 [2]: > 1e-05 M | Ba/F3 Ros1 L2026M (-IL-3) pIC50 [4]: 6.9 | IC50 (Ros1 enzyme): 3.98e-08 M | EC50 [5]: 1e-07 M

CC(C)c1ccc(COc2ccc(-c3c(-c4ccncc4)nn4c3NC(CO)CC4)cc2)cc1 (stereo not drawn) [Co. 24]
melting point: 199 °C | BaF3-ROS1 − IL3 pIC50 [1]: 7.5 | CC50 [2]: 7.94e-06 M | Ba/F3 Ros1 L2026M (-IL-3) pIC50 [4]: 7.6 | IC50 (Ros1 enzyme): 6.31e-08 M | EC50 [5]: 7.94e-08 M

CC(C)c1ccc(COc2ccc(-c3c(-c4ccncc4)nn4c3NCCC4CO)cc2)cc1 (stereo not drawn) [Co. 25]
melting point: 155 °C | BaF3-ROS1 − IL3 pIC50 [1]: 7.0 | CC50 [2]: > 1e-05 M | Ba/F3 Ros1 L2026M (-IL-3) pIC50 [4]: 6.8 | IC50 (Ros1 enzyme): 1.26e-07 M | EC50 [5]: 7.94e-07 M

CC(C)c1ccc(COc2ccc(-c3c(-c4ccncc4)nn4ccc(=O)[nH]c34)cc2)cc1 [Co. E]
melting point: 243 °C | BaF3-ROS1 − IL3 pIC50 [1]: 7.1 | CC50 [2]: > 1e-05 M | Ba/F3 Ros1 L2026M (-IL-3) pIC50 [4]: 6.9 | IC50 (Ros1 enzyme): 6.31e-08 M | EC50 [5]: 5.01e-07 M

CNC(=O)c1ccnc2c(-c3ccc(OCc4ccc(C(C)C)cc4)cc3)c(-c3ccncc3)nn12 [Co. J]
melting point: 207 °C | BaF3-ROS1 − IL3 pIC50 [1]: 6.8 | CC50 [2]: > 1e-05 M | Ba/F3 Ros1 L2026M (-IL-3) pIC50 [4]: 6.8 | IC50 (Ros1 enzyme): 5.01e-07 M | EC50 [5]: 2e-06 M
